Legend:
Karpas422 cells = assay: Cell proliferation inhibition test (CCK8), Karpas422; type: cell-based; conditions: Homo sapiens, KARPAS-422, 288 h; B-cell non-Hodgkin's lymphoma cell line, 12 days incubation, CCK8 cell viability
Excerpt: (§1) Cell Proliferation Inhibition Test
(§2) Karpass 422 and WSUDLCL-2 cells were purchased from the European Collection of Authenticated Cell Cultures (ECACC) and the German Collection of Microorganisms and Cell Cultures (Deutsche Sammlung von Mikroorganismen und Zellkulturen, DSMZ). RMBI 1640 medium, penicillin-streptomycin, heat-inactivated fetal bovine senum (FBS), and horse serum were purchased from ThermoFisher (Waltham MA, USA). Corning 96-well cell culture plate was purchased from ThermoFisher (Waltham MA, USA).
(§3) To evaluate the inhibitory effect of the synthesized compounds on the proliferation of B-cell non-Hodgkin's lymphoma Karpass 422 and WSUDLCL-2 cells, exponentially growing cells were inoculated in RMPI1640 medium containing 20% and 10% horse serum and 1% penicillin-streptomycin at concentrations of 2000 cells/ml and 3000 cells/ml, respectively, in 96-well plates, 100 μL per well, and incubated overnight in an incubator at 37° C. and 5% CO2. The compound was prepared in DMSO into a 10-point, 3-fold series diluent, starting at 6 mM. 1 μL of DMSO solution from a compound reserve plate was added to 99 μL of cell culture medium (the final maximum concentration of the compound in the assay was 30 μM and the final concentration of DMSO was 0.5%). 100 μL of compound solution from the medium was added to each well of the Karpass422 cell plate. After the addition of the compound solution, the assay plate was incubated at 37° C. and 5% CO2 for 12 days. During the incubation, the cell culture medium was replaced with the cell culture medium having the newly dissolved test compound every 4 days. After 100 μL of the old medium was removed from the cell plate, 100 μL of medium having dissolved test compound was added to the assay plate, which was prepared by adding 1 μL of compound DMSO series solution to 199 μL of cell medium with the same layout as the original preparation layout. Cell viability was measured by using cell count kit-8 (CCK8) purchased from Beyotime Biotechnology (Shanghai, China). 20 μL of CCK8 reagent was added to each well of the assay plate and incubated at 37° C. for 2 hours. The O.D. at 450 nm was read by using a FlexStation 3 microplate reader (Molecular Devices, Sunnyvale, CA 94089 USA).

WSUDLCL-2 cells = assay: Cell proliferation inhibition test (CCK8), WSUDLCL-2; type: cell-based; conditions: Homo sapiens, WSUDLCL2, 288 h; B-cell non-Hodgkin's lymphoma cell line, 12 days incubation, CCK8 cell viability
Excerpt: as §1, §2, §3

Wild-type PRC2/EZH2 = biological target: T1, Wild-type PRC2/EZH2 (Homo sapiens, UniProt Q15910); assay: PRC2/EZH2 HTRF enzyme inhibition test; type: biochemical; conditions: human recombinant PRC2 complex, 30 μM SAM, 10 μM biotin-H3 (21-44) peptide
T1 construct: purchased Reaction Biology (Malvern, PA); host or cells: insect cell/baculovirus expression system
T1 sequence (Q15910 whole entry): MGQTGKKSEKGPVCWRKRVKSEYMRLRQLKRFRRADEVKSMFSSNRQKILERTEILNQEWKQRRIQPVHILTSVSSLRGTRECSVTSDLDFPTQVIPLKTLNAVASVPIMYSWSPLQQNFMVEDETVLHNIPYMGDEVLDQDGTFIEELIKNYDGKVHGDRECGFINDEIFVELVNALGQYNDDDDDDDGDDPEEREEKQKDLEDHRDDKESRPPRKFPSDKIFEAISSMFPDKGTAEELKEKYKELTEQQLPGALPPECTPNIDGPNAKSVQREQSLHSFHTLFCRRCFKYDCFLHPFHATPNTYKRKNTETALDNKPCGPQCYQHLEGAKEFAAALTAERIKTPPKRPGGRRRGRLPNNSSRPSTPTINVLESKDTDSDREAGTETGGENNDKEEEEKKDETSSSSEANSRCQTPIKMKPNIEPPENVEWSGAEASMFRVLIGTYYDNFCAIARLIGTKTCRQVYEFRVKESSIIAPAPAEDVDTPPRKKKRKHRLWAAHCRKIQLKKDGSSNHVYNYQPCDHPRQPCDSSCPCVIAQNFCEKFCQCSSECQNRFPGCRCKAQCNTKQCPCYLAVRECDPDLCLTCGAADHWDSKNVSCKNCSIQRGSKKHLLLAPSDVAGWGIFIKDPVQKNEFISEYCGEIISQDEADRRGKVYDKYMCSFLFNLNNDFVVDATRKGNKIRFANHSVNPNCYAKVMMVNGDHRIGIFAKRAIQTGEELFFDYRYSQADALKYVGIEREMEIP
T1 sequence (Q6ZN18 whole entry partner): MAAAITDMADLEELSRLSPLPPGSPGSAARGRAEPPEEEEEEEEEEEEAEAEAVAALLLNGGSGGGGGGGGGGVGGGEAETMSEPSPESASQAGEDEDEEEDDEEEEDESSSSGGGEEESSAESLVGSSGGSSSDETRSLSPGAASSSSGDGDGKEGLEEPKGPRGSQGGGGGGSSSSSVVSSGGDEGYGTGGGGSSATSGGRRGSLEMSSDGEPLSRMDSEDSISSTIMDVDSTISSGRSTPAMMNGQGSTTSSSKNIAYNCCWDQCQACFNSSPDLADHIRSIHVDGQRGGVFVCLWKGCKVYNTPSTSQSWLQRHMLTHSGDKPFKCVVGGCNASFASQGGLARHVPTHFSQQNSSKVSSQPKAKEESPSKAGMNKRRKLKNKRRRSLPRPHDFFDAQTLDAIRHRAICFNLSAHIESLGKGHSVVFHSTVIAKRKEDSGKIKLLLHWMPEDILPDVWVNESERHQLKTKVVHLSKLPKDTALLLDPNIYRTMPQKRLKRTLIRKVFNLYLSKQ
T1 sequence (O75530 whole entry partner): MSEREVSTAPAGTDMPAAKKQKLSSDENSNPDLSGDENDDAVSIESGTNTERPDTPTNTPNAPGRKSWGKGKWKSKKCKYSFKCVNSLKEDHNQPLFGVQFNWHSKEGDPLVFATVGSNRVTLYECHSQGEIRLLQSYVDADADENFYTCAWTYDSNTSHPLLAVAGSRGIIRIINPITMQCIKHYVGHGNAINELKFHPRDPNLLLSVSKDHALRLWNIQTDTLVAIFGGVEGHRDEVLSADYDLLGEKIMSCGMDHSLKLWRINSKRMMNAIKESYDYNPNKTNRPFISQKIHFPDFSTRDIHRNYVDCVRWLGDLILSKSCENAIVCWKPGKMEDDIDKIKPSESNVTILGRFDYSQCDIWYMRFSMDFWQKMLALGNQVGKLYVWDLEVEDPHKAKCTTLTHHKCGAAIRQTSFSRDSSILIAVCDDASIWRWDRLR
T1 sequence (Q09028 whole entry partner): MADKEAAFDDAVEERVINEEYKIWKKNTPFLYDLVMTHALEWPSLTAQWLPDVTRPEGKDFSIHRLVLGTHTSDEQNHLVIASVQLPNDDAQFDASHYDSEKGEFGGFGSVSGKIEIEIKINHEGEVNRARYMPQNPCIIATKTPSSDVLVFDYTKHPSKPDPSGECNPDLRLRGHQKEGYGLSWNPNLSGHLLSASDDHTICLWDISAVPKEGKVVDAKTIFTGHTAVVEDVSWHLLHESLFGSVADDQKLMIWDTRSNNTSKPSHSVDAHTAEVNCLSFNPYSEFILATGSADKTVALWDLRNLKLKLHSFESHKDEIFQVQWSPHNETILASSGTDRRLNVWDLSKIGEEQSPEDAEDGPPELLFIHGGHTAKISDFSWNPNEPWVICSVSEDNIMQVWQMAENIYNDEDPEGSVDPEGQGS
T1 sequence (Q15022 whole entry partner): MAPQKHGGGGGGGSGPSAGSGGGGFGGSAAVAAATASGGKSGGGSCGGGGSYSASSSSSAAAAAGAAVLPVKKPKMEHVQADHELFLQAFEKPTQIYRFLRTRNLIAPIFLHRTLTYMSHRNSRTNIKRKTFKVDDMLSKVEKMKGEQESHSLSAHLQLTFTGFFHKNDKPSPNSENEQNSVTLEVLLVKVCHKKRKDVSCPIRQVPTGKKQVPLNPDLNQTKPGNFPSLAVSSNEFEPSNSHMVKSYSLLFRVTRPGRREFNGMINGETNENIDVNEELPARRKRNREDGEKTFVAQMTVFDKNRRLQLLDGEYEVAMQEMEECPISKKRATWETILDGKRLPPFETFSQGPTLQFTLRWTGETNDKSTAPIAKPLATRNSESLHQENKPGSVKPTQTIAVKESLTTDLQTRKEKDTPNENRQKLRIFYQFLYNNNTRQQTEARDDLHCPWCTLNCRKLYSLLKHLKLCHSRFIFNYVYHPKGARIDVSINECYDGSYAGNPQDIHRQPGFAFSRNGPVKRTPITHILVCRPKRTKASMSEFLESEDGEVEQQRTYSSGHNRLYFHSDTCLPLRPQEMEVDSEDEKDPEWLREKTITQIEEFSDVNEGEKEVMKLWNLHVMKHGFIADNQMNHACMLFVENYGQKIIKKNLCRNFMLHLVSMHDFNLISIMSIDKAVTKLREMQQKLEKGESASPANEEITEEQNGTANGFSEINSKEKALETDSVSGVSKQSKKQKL
Excerpt: The human recombinant PRC2 complex was composed of human recombinant EZH2, AEBP2, EED, RbAp48, and SUZ12, co-expressed in an insect cell/baculovirus expression system, and purchased from Reaction Biology (Malvern, PA). […] The HTRF detection kit including monoclonal antibody histone H3K27Mel-Eu (K) fluorescent donor and streptavidin labeled XL665 fluorescent receptor was purchased from Cisbio (Shanghai, China). S-adenosylmethionine (SAM), Tween 20, dimethyl sulfoxide (DMSO), and Tris buffer at the highest purity level were purchased from Sigma.
The experiment was carried out in a buffer consisting of 50 mM Tris, pH 9.0, 0.1% BSA, and 0.01% Tween 20, and 1 mM DTT was added before the experiment started. 2.5 μL of a solution of a compound in 4% DMSO and 5 μL of PRC2/SAM mixed solution pre-incubated for 30 minutes were added to the buffer, and then the buffer was added to a white low-volume 384-well microtiter plate. The mixture solution was gently shaken and incubated at room temperature for 15 minutes. 2.5 μL of biotin-H3 (21-44) peptide substrate solution was added to the buffer to initiate the methyl transfer reaction. The final concentrations of PRC2, SAM, biotin-H3 peptide substrate, and DMSO were 2 ng/L, 30 μM, 10 μM, and 1%, respectively. The reaction was gently shaken at room temperature away from light for 120 minutes, and then 10 μL of monoclonal antibody histone H3K27Mel-Eu (K) fluorescent donor and streptavidin-labeled XL665 fluorescent receptor in the detection buffer from the manufacturer were added to the reaction mixture for incubation for 60 minutes. The final concentrations of these two reagents were 50 ng/ml and 62.5 nM, respectively. The plate was read on an Envision multi-template reader from PerkinElmer (Waltham MA USA) with an excitation wavelength of 320 nm and emission wavelengths of 665 and 615 nm. The IC50 value of the inhibitor was obtained by fitting an S-shaped dose-response curve (variable slope, four parameters) of fluorescence intensities at 665 nm and 615 nm over inhibitor concentrations by using Prism 7 (La Jolla, CA).

SMILES	IC50 (Karpas422 cells) [nM]	IC50 (WSUDLCL-2 cells) [nM]	IC50 (Wild-type PRC2/EZH2) [nM]
COc1cc(C)[nH]c(=O)c1CN1CCn2ccc3cc(-c4c(C)noc4C)c(Cl)c(c32)C1=O [Compound 1, 10-chloro-9-(3,5-dimethylisoxazol-4-yl)-2-((4-methoxy-6-methyl-2-oxo-1,2-dihydropyridin-3-yl)methyl)-3,4-dihydro-[1,4]diazepino[6,7,1-HI]indol-1(2H)-one]	52	3.8	–
CCN(c1cc2ccn3c2c(c1Cl)C(=O)N(Cc1c(OC)cc(C)[nH]c1=O)CC3)C1COC1 [Compound 2, 10-chloro-9-(ethyl(oxetan-3-yl)amino)-2-((4-methoxy-6-methyl-2-oxo-1,2-dihydropyridin-3-yl)methyl)-3,4-dihydro-[1,4]diazepino[6,7,1-HI]indol-1(2H)-one]	–	–	3.8
COc1cc(C)[nH]c(=O)c1CN1CCN2CCc3cc(-c4c(C)noc4C)c(Cl)c(c32)C1=O [Compound 3, 10-chloro-9-(3,5-dimethylisoxazol-4-yl)-2-((4-methoxy-6-methyl-2-oxo-1,2-dihydropyridin-3-yl)methyl)-3,4,6,7-tetrahydro-[1,4]diazepino[6,7,1-HI]indol-1(2H)-one]	–	–	19.9
COc1cc(C)[nH]c(=O)c1CN1CCn2ccc3cc(-c4c(C)nn(C)c4C)c(Cl)c(c32)C1=O [Compound 4, 10-chloro-2-((4-methoxy-6-methyl-2-oxo-1,2-dihydropyridin-3-yl)methyl)-9-(1,3,5-trimethyl-1H-pyrazol-4-yl)-3,4-dihydro-[1,4]diazepino[6,7,1-HI]indol-1(2H)-one]	–	–	2530
COc1cc(C)[nH]c(=O)c1CN1CCn2ccc3cc(-c4c(C)cnn4C)c(Cl)c(c32)C1=O [Compound 5, 10-chloro-9-(1,4-dimethyl-1H-pyrazol-5-yl)-2-((4-methoxy-6-methyl-2-oxo-1,2-dihydropyridin-3-yl)methyl)-3,4-dihydro-[1,4]diazepino[6,7,1-HI]indol-1(2H)-one]	–	–	253
COc1cc(C)[nH]c(=O)c1CN1CCn2cc(Cl)c3cc(-c4c(C)cnn4C)c(Cl)c(c32)C1=O [Compound 6, 7,10-dichloro-9-(1,4-dimethyl-1H-pyrazol-5-yl)-2-((4-methoxy-6-methyl-2-oxo-1,2-dihydropyridin-3-yl)methyl)-3,4-dihydro-[1,4]diazepino[6,7,1-HI]indol-1(2H)-one]	–	–	1120
COc1cc(C)[nH]c(=O)c1CN1CCn2ccc3cc(-c4c(C)nn(CCO)c4C)c(Cl)c(c32)C1=O [Compound 7, 10-chloro-9-(1-(2-hydroxyethyl)-3,5-dimethyl-1H-pyrazol-4-yl)-2-((4-methoxy-6-methyl-2-oxo-1,2-dihydropyridin-3-yl)methyl)-3,4-dihydro-[1,4]diazepino[6,7,1-HI]indol-1(2H)-one]	–	–	3650
COc1cc(C)[nH]c(=O)c1CN1CCn2ccc3cc(-c4c(C)nn(CC#N)c4C)c(Cl)c(c32)C1=O [Compound 8, 2-(4-(10-chloro-2-((4-methoxy-6-methyl-2-oxo-1,2-dihydropyridin-3-yl)methyl)-1-oxo-1,2,3,4-tetrahydro-[1,4]diazepino[6,7,1-HI]indol-9-yl)-3,5-dimethyl-1H-pyrazol-1-yl)acetonitrile]	–	–	1090
COc1cc(C)[nH]c(=O)c1CN1CCn2ccc3cc(C(OC)C4COC4)c(Cl)c(c32)C1=O (stereo not shown) [Compound 9, 10-chloro-9-(methoxy(oxetan-3-yl)methyl)-2-((4-methoxy-6-methyl-2-oxo-1,2-dihydropyridin-3-yl)methyl)-3,4-dihydro-[1,4]diazepino[6,7,1-HI]indol-1(2H)-one]	–	–	21.5
COc1cc(C)[nH]c(=O)c1CN1CCn2ccc3cc([C@H](OC)C4COC4)c(Cl)c(c32)C1=O [Compound 10, (R)-10-chloro-9-(methoxy(oxetan-3-yl)methyl)-2-((4-methoxy-6-methyl-2-oxo-1,2-dihydropyridin-3-yl)methyl)-3,4-dihydro-[1,4]diazepino[6,7,1-HI]indol-1(2H)-one]	11.4	2.4	7.2
COc1cc(C)[nH]c(=O)c1CN1CCn2ccc3cc([C@@H](OC)C4COC4)c(Cl)c(c32)C1=O [Compound 11, (S)-10-chloro-9-(methoxy(oxetan-3-yl)methyl)-2-((4-methoxy-6-methyl-2-oxo-1,2-dihydropyridin-3-yl)methyl)-3,4-dihydro-[1,4]diazepino[6,7,1-HI]indol-1(2H)-one]	934	104	557
COc1cc(C)[nH]c(=O)c1CN1CCn2ncc3cc(-c4c(C)noc4C)c(Cl)c(c32)C1=O [Compound 12, 5-chloro-4-(3,5-dimethylisoxazol-4-yl)-7-((4-methoxy-6-methyl-2-oxo-1,2-dihydropyridin-3-yl)methyl)-8,9-dihydro-[1,4]diazepino[6,7,1-HI]indazol-6(7H)-one]	87.6	11	–
COc1cc(C)[nH]c(=O)c1CN1CCn2cnc3cc(-c4c(C)noc4C)c(Cl)c(c32)C1=O [Compound 13, 5-chloro-4-(3,5-dimethylisoxazol-4-yl)-7-((4-methoxy-6-methyl-2-oxo-1,2-dihydropyridin-3-yl)methyl)-8,9-dihydro-2,7,9a-triazabenzo[cd]azulen-6(7H)-one]	359	56.1	–
COc1cc(C)[nH]c(=O)c1CN1CCn2ccc3cc(C(OC)C4COC4)c(C)c(c32)C1=O (stereo not shown) [Compound 14, 9-(methoxy(oxetan-3-yl)methyl)-2-((4-methoxy-6-methyl-2-oxo-1,2-dihydropyridin-3-yl)methyl)-10-methyl-3,4-dihydro-[1,4]diazepino[6,7,1-HI]indol-1(2H)-one]	28.7	4.8	11.8
COc1cc(C)[nH]c(=O)c1CN1CCn2ccc3cc(-c4c(C)noc4C)c(C)c(c32)C1=O [Compound 15, 9-(3,5-dimethylisoxazol-4-yl)-2-((4-methoxy-6-methyl-2-oxo-1,2-dihydropyridin-3-yl)methyl)-10-methyl-3,4-dihydro-[1,4]diazepino[6,7,1-HI]indol-1(2H)-one]	50.1	1.2	17.8
COc1cc(C)[nH]c(=O)c1CN1CC(C)n2ccc3cc(-c4c(C)noc4C)c(Cl)c(c32)C1=O (stereo not shown) [Compound 16, 10-chloro-9-(3,5-dimethylisoxazol-4-yl)-2-((4-methoxy-6-methyl-2-oxo-1,2-dihydropyridin-3-yl)methyl)-4-methyl-3,4-dihydro-[1,4]diazepino[6,7,1-HI]indol-1(2H)-one]	158	4.6	–
COc1cc(C)[nH]c(=O)c1CN1C(=O)c2c(Cl)c(-c3c(C)noc3C)cc3ccn(c23)CC1C (stereo not shown) [Compound 17, 10-chloro-9-(3,5-dimethylisoxazol-4-yl)-2-((4-methoxy-6-methyl-2-oxo-1,2-dihydropyridin-3-yl)methyl)-3-methyl-3,4-dihydro-[1,4]diazepino[6,7,1-HI]indol-1(2H)-one]	35	1.2	14

Source: patent publication US12479846B2, “EZH2 inhibitor and use thereof” (PHARMABLOCK SCIENCES (NANJING) , INC., priority 2019, dated 2025)
